Values of other authors in paper PMC3853718 (Journal of Translational Medicine, 2013).
Where two headings read alike, the source gives them in different places.

How the values were obtained:
solid tumor patients = conditions: cited from earlier work
patients = conditions: cited from earlier work; for toxicity: 1-hour infusion on days 1, 8, 15 in a 4-week cycle
healthy volunteers = system: healthy volunteers; design: method as in PMID 17115157; conditions: single dose of 160 mg; cited from earlier work
mouse xenograft model = conditions: cited from earlier work
nude mice = conditions: once-daily administration for 7 days in nude mice; cited from earlier work

O=C(NC1CCNCC1)c1[nH]ncc1NC(=O)c1c(Cl)cccc1Cl [AT7519]
objective responses (solid tumor patients; patient with metastatic NSCLC): one PR

Cc1ncc(-c2ccnc(Nc3ccc(S(C)(=O)=O)cc3)n2)n1C(C)C [AZD5438]
tolerability (patients; 40 mg four times a day, continuous daily dosing schedules, advanced solid tumors): not tolerated
objective responses (solid tumor patients; 3 phase 1 trials): No responses
DLT (healthy volunteers): nausea and vomiting

CC(=O)c1c(C)c2cnc(Nc3ccc(N4CCNCC4)cn3)nc2n(C2CCCC2)c1=O [PD0332991]
DLTs (patients): neutropenia
objective responses (solid tumor patients; patient with testicular cancer among 33 patients): one PR

CC(C)CC(=O)Nc1[nH]nc2c1CN(C(=O)C1CCN(C)CC1)C2(C)C [PHA793887]
toxicity (patients; dose level of 66 mg/m^2, one patient): grade 4 hepatic failure
toxicity (patients; third dose level of 44 mg/m^2, one patient): fatal hepatorenal failure
objective responses (solid tumor patients; first-in-human study in solid tumor patients): did not show any objective responses

CN1CC[C@H](c2c(O)cc(O)c3c(=O)cc(-c4ccccc4Cl)oc23)[C@H](O)C1 [flavopiridol]
minimum effective dose, defined as >50% tumor growth inhibition (mouse xenograft model): 10 mg/kg
dose-limiting toxicity (patients; 72-hour continuous infusion trials): dose-limiting diarrhea
dose-limiting toxicity (patients; daily 1-hour infusion schedule): dose-limiting neutropenia
objective responses (solid tumor patients; 55 patients, 1-hour daily infusion for 5 days, 3 days, or 1 day in a 21-day cycle): No objective responses
objective responses (solid tumor patients; 72-hour continuous infusion every 2 weeks, study of 76 patients, patient with renal cancer): one PR
objective responses (solid tumor patients; 72-hour continuous infusion every 2 weeks, trial of 38 patients, patient with gastric cancer): one CR
maximum tolerated dose, defined as the dose associated with 20% weight loss (nude mice): < 10 mg/kg

CC[C@H](CO)Nc1nc(NCc2ccccc2)c2ncn(C(C)C)c2n1 [seliciclib]
Dose-limiting toxicities (patients; orally twice daily for 7 days of a 21-day schedule): hypokalemia, hyponatremia, elevated gamma-glutamyl transferase, hyperglycemia, and vasculitic rash
objective responses (solid tumor patients; patient with hepatocellular carcinoma among 56 patients): one PR
objective responses (solid tumor patients; separate trial): No responses
